{
  "source": "DBAASP",
  "test_in_all_cases": "≥ marks a high value that may be exact or a test limit, other limits are often not marked, values filed in µg/mL are converted to µM",
  "key": {"[1]": {"system": "Salmonella typhimurium KCTC 1926"}, "[2]": {"system": "Listeria monocytogenes KCTC 3710"}, "[3]": {"system": "Botrytis cinerea"}, "[4]": {"system": "Escherichia coli O157:H7 ATCC 43895"}, "[5]": {"system": "Aspergillus flavus KCTC 9471"}, "[6]": {"system": "Staphylococcus epidermidis"}, "[7]": {"system": "Pseudomonas aeruginosa"}, "[8]": {"system": "Fusarium verticillioides"}, "[9]": {"system": "Proteus vulgaris"}, "[10]": {"system": "Bacillus subtilis KCTC 1918"}, "[11]": {"system": "Trichosporon beigelii KCTC 7707"}, "[12]": {"system": "Escherichia coli KCTC 1682"}, "[13]": {"system": "Candida albicans KCTC 7270"}, "[14]": {"system": "Escherichia coli"}, "[15]": {"system": "Pseudomonas aeruginosa KCTC 1637"}, "[16]": {"system": "Staphylococcus epidermidis KCTC 1917"}, "[17]": {"system": "Saccharomyces cerevisiae KCTC 7296"}, "[18]": {"system": "Staphylococcus aureus KCTC 1621"}, "[19]": {"system": "Aspergillus fumigatus KCTC 6145"}, "[20]": {"system": "Pseudomonas aeruginosa Q14-0208"}, "[21]": {"system": "Enterococcus faecalis JH-2-2"}, "[22]": {"system": "Klebsiella pneumoniae Q14-0285"}, "[23]": {"system": "Pseudomonas aeruginosa Q14-0890"}, "[24]": {"system": "Staphylococcus aureus ATCC 29213"}, "[25]": {"system": "Acinetobacter baumannii Q13-0717"}, "[26]": {"system": "Campylobacter jejuni NCTC 11351"}, "[27]": {"system": "Acinetobacter baumannii"}, "[28]": {"system": "Campylobacter jejuni NCTC 11161"}, "[29]": {"system": "Campylobacter jejuni ATCC 33292"}, "[30]": {"system": "Pseudomonas aeruginosa PAO1"}, "[31]": {"system": "Klebsiella pneumoniae NCTC 13442"}, "[32]": {"system": "Staphylococcus aureus NCTC 12493"}, "[33]": {"system": "Klebsiella pneumoniae ATCC 700603"}, "[34]": {"system": "Staphylococcus aureus MRSA-15"}, "[35]": {"system": "Escherichia coli K-12"}, "[36]": {"system": "Staphylococcus aureus ATCC 33591"}, "[37]": {"system": "Pseudomonas aeruginosa ATCC 27853"}, "[38]": {"system": "Staphylococcus aureus USA 300"}, "[39]": {"system": "Listeria monocytogenes NCTC 11994"}, "[40]": {"system": "Salmonella typhimurium SL1344"}, "[41]": {"system": "Campylobacter jejuni"}, "[42]": {"system": "Staphylococcus aureus Q14-0320"}, "[43]": {"system": "Staphylococcus aureus RN4220"}, "[44]": {"system": "Citrobacter sp."}, "[45]": {"system": "Klebsiella pneumoniae"}, "[46]": {"system": "Escherichia coli ATCC 25922"}, "[47]": {"system": "Staphylococcus aureus"}, "[48]": {"system": "Enterobacter cloacae"}, "[49]": {"system": "Staphylococcus aureus ATCC 25923"}, "[50]": {"system": "Acinetobacter baumannii ATCC 15308"}, "[51]": {"system": "Streptococcus pneumoniae"}, "[52]": {"system": "Pseudomonas aeruginosa ATCC 15442"}, "[53]": {"system": "Staphylococcus aureus USA 300 LAC"}, "[54]": {"system": "Klebsiella pneumoniae ATCC 13883"}},
  "data": [
    {"smiles": "CC[C@H](C)[C@H](NC(=O)[C@H](CCCCN)NC(=O)[C@H](CO)NC(=O)[C@H](Cc1ccccc1)NC(=O)[C@H](CC(C)C)NC(=O)[C@H](CCCCN)NC(=O)[C@H](CCC(=O)O)NC(=O)[C@H](CC(C)C)NC(=O)[C@H](CCCN=C(N)N)NC(=O)[C@H](CCCCN)NC(=O)[C@H](Cc1ccccc1)NC(=O)[C@@H](NC(=O)[C@H](CCCCN)NC(=O)[C@H](CCCCN)NC(=O)[C@H](C)N)C(C)C)C(=O)N[C@@H](CCC(N)=O)C(=O)N[C@@H](CC(N)=O)C(=O)N[C@@H](CC(=O)O)C(=O)N[C@@H](CCCCN)C(N)=O", "note": "[AKKVFKRLEKLFSKIQNDK]", "values": [
      {"measurement": "MIC", "setting": "[1]", "value": 1.56, "unit": "µM"},
      {"measurement": "MIC", "setting": "[2]", "value": 6.25, "unit": "µM"},
      {"measurement": "MIC", "setting": "[3]", "value": 12.5, "unit": "µM"},
      {"measurement": "MIC", "setting": "[4]", "value": 12.5, "unit": "µM"},
      {"measurement": "MIC", "setting": "[5]", "value": "≥ 50", "unit": "µM"},
      {"measurement": "MIC", "setting": "[6]", "value": 6.25, "unit": "µM"},
      {"measurement": "MIC", "setting": "[7]", "value": 6.25, "unit": "µM"},
      {"measurement": "MIC", "setting": "[8]", "value": 25, "unit": "µM"},
      {"measurement": "MIC", "setting": "[9]", "value": 4.42, "unit": "µM"},
      {"measurement": "MIC", "setting": "[10]", "value": 3.13, "unit": "µM"},
      {"measurement": "MIC", "setting": "[11]", "value": 3.13, "unit": "µM"},
      {"measurement": "MIC", "setting": "[12]", "value": 12.5, "unit": "µM"},
      {"measurement": "MIC", "setting": "[13]", "value": 25, "unit": "µM"},
      {"measurement": "MIC", "setting": "[14]", "value": 3.13, "unit": "µM"},
      {"measurement": "MIC", "setting": "[15]", "value": 1.56, "unit": "µM"},
      {"measurement": "MIC", "setting": "[16]", "value": 3.12, "unit": "µM"},
      {"measurement": "MIC", "setting": "[17]", "value": 25, "unit": "µM"},
      {"measurement": "MIC", "setting": "[18]", "value": 12.5, "unit": "µM"},
      {"measurement": "MIC", "setting": "[19]", "value": "≥ 50", "unit": "µM"}
    ]},
    {"smiles": "CC[C@H](C)[C@H](NC(=O)[C@H](CCCN=C(N)N)NC(=O)[C@@H](NC(=O)[C@H](CC(C)C)NC(=O)[C@H](CC(C)C)NC(=O)[C@H](CCCCN)NC(=O)[C@H](CC(N)=O)NC(=O)[C@@H](NC(=O)[C@H](CCCN=C(N)N)NC(=O)[C@H](CCCN=C(N)N)NC(=O)[C@H](CC(C)C)NC(=O)[C@@H](N)Cc1cnc[nH]1)[C@@H](C)CC)[C@@H](C)O)C(=O)NCC(=O)N[C@@H](CC(C)C)C(=O)N[C@@H](Cc1ccc(O)cc1)C(=O)N[C@@H](CCCN=C(N)N)C(=O)N[C@@H](Cc1cnc[nH]1)C(=O)N[C@@H](C)C(=O)N[C@@H](Cc1ccccc1)C(=O)NCC(=O)O", "note": "[HLRRINKLLTRIGLYRHAFG]", "values": [
      {"measurement": "MIC", "setting": "[20]", "value": 13.1, "unit": "µM"},
      {"measurement": "MIC", "setting": "[21]", "value": 13.1, "unit": "µM"},
      {"measurement": "MIC", "setting": "[22]", "value": 26.3, "unit": "µM"},
      {"measurement": "MIC", "setting": "[23]", "value": 26.3, "unit": "µM"},
      {"measurement": "MIC", "setting": "[24]", "value": "> 52.6", "unit": "µM"},
      {"measurement": "MIC", "setting": "[25]", "value": 3.29, "unit": "µM"},
      {"measurement": "MIC", "setting": "[26]", "value": "≥ 52.6", "unit": "µM"},
      {"measurement": "MIC", "setting": "[27]", "value": 6.57, "unit": "µM"},
      {"measurement": "MIC", "setting": "[28]", "value": 13.1, "unit": "µM"},
      {"measurement": "MIC", "setting": "[29]", "value": 13.1, "unit": "µM"},
      {"measurement": "MIC", "setting": "[30]", "value": 52.6, "unit": "µM"},
      {"measurement": "MIC", "setting": "[7]", "value": 105, "unit": "µM"},
      {"measurement": "MIC", "setting": "[31]", "value": "≥ 52.6", "unit": "µM"},
      {"measurement": "MIC", "setting": "[32]", "value": 26.3, "unit": "µM"},
      {"measurement": "MIC", "setting": "[33]", "value": 26.3, "unit": "µM"},
      {"measurement": "MIC", "setting": "[34]", "value": 13.1, "unit": "µM"},
      {"measurement": "MIC", "setting": "[35]", "value": 26.3, "unit": "µM"},
      {"measurement": "MIC", "setting": "[36]", "value": "≥ 52.6", "unit": "µM"},
      {"measurement": "MIC", "setting": "[14]", "value": "> 52.6", "unit": "µM"},
      {"measurement": "MIC", "setting": "[37]", "value": "> 52.6", "unit": "µM"},
      {"measurement": "MIC", "setting": "[38]", "value": "≥ 105", "unit": "µM"},
      {"measurement": "MIC", "setting": "[39]", "value": 13.1, "unit": "µM"},
      {"measurement": "MIC", "setting": "[40]", "value": 13.1, "unit": "µM"},
      {"measurement": "MIC", "setting": "[41]", "value": "≥ 52.6", "unit": "µM"},
      {"measurement": "MIC", "setting": "[42]", "value": "≥ 52.6", "unit": "µM"},
      {"measurement": "MIC", "setting": "[43]", "value": 13.1, "unit": "µM"}
    ]},
    {"smiles": "NC(=O)[C@H](CCCN=C(N)N)NC(=O)[C@H](CCCN=C(N)N)NC(=O)[C@H](Cc1c[nH]c2ccccc12)NC(=O)[C@@H]1CCCN1C(=O)[C@H](Cc1c[nH]c2ccccc12)NC(=O)[C@H](CCCN=C(N)N)NC(=O)[C@@H]1CCCN1C(=O)[C@H](Cc1c[nH]c2ccccc12)NC(=O)[C@H](CCCN=C(N)N)NC(=O)[C@H](Cc1c[nH]c2ccccc12)NC(=O)[C@@H]1CCCN1C(=O)[C@H](CCCN=C(N)N)NC(=O)[C@@H](N)CCCN=C(N)N", "note": "[RRPWRWPRWPWRR]", "values": [
      {"measurement": "MIC", "setting": "[44]", "value": "≥ 126", "unit": "µM"},
      {"measurement": "MIC", "setting": "[45]", "value": "> 126", "unit": "µM"},
      {"measurement": "MIC", "setting": "[46]", "value": 15.7, "unit": "µM"},
      {"measurement": "MIC", "setting": "[47]", "value": 31.4, "unit": "µM"},
      {"measurement": "MIC", "setting": "[48]", "value": "≥ 126", "unit": "µM"},
      {"measurement": "MIC", "setting": "[49]", "value": 15.7, "unit": "µM"},
      {"measurement": "MIC", "setting": "[50]", "value": "≥ 126", "unit": "µM"},
      {"measurement": "MIC", "setting": "[51]", "value": 31.4, "unit": "µM"},
      {"measurement": "MIC", "setting": "[52]", "value": 15.7, "unit": "µM"}
    ]},
    {"smiles": "CC[C@H](C)[C@H](NC(=O)[C@H](CCCN=C(N)N)NC(=O)[C@H](CCCN=C(N)N)NC(=O)[C@H](CC(C)C)NC(=O)[C@H](Cc1c[nH]c2ccccc12)NC(=O)[C@H](Cc1c[nH]c2ccccc12)NC(=O)[C@@H](N)Cc1c[nH]c2ccccc12)C(=O)N[C@@H](CCCN=C(N)N)C(N)=O", "note": "[WWWLRRIR]", "values": [
      {"measurement": "MIC", "setting": "[46]", "value": 25, "unit": "µM"},
      {"measurement": "MIC", "setting": "[53]", "value": 12.5, "unit": "µM"},
      {"measurement": "MIC", "setting": "[30]", "value": 12.5, "unit": "µM"},
      {"measurement": "MIC", "setting": "[54]", "value": 25, "unit": "µM"},
      {"measurement": "MIC", "setting": "[38]", "value": 12.5, "unit": "µM"}
    ]}
  ]
}
